These results are taken from patent US7812031B2, “Pyrimidine derivatives as orexin receptor antagonists” (Sanofi-Aventis, priority 2004, dated 2010).

The target in data set [1] is T1, human recombinant orexin-2 (hr-OX-2) receptor (Homo sapiens, UniProt O43614).
T1 construct: expressed in transfected cells; host or cells: CHO (CHO-hr-OX-2 cells), purified plasma membrane fraction
T1 sequence (O43614 1-444): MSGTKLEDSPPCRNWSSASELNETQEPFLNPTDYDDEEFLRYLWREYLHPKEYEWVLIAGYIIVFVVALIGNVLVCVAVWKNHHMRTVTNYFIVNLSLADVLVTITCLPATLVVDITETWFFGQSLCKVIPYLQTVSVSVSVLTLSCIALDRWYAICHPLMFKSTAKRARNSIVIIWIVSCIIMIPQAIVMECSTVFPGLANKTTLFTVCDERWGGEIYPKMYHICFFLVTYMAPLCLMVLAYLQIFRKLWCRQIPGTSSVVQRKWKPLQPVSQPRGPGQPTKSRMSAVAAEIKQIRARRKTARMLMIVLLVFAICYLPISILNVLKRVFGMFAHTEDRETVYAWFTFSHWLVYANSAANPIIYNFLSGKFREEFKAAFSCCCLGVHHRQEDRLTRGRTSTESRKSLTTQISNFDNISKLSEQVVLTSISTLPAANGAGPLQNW
Put plainly: hr-125I-orexin-A radioligand competition binding, orexin-2 receptor. To be noted: displacement of 125I-orexin-A, CHO-hr-OX-2 plasmamembranes, 25° C., 60 minutes; read-out: Orex-2 IC50. How it is done:
(§1) In vitro radioligand binding assays were used for determination of the affinities of the compounds for both the orexin-1 and orexin-2 receptors.
(§2) In the frame of hr-^125I-orexin-A radioligand competition (displacement) experiments a fixed concentration of hr-^125I-orexin-A is incubated with increasing concentrations of unlabeled test compound in the presence of highly purified plasmamembranes bearing either the human recombinant orexin-1 (hr-OX-1) or the human recombinant orexin-2 (hr-OX-2) receptors. Specific binding of hr-^125I-orexin-A to plasmamembranes is measured at each concentrations of the unlabeled compound and thus a competition curve is generated. The concentration of unlabeled compound displacing 50% of specific binding (IC50) is calculated. In case of competitive interaction the binding affinity constant of the unlabeled compound (K1) is calculated according to the Cheng-Prusoff equation (K1=IC50/(1+L*/KD). Affinity of unlabeled compound for the receptor is equal to 1/K1.
(§3) Culturing the Chinese hamster ovarian cells expressing human recombinant orexin-1 or orexin-2 receptor proteins (CHO-hr-OX-1 or CHO-hr-OX-2 cells) was carried out in cell culture medium (MEM medium, supplemented with 40 mg/l prolin, 20 mg/l gentamycin, 300 mg/l geneticin, 10% dialysed fetal calf serum).
(§4) Adherent cells were plated into Greiner flasks (175 cm^2). 4-6 days later culture medium was removed and cells were scarped in calcium- and magnesium-free phosphate buffered saline (PBS, 20 ml/flask). The cell suspension was centrifuged at 1,000 g for 5 minutes (4° C.). The resulting pellet was resuspended and homogenized with a teflon pestle (4° C.), then layered onto a discontinuous sucrose gradient and centrifuged at 105,000 g. Plasmamembrane fraction accumulated in the interface between 14 and 34% sucrose layers was separated and pelleted by a further centrifugation step at 105,000 g for 60 min (4° C.). The final pellet was resuspended in binding assay buffer and stored at −80° C. up to the day of radioligand binding experiment.
(§5) For ^125I-orexin-A competition binding studies, aliquots of cell membrane fractions containing either hr-orexin-1 or hr-orexin-2 receptors were incubated with ^125I-orexin-A in binding assay buffer at 25° C. for 60 minutes. Nonspecific binding was defined by 1 μM hr-orexin-A in both cases.
(§6) Test compounds were dissolved at a concentration of 1 mM in dimethylsulfoxide (DMSO). Serial dilution series were prepared from stock solutions (100% DMSO) with binding assay buffer in such a way that each samples contained a final concentration of 1% of DMSO in the receptor binding reaction mixture. After the incubation, samples were filtered through Whatman GF/C glass fibre filters using a SKATRON cell harvester, and the filters were washed with 5 ml of ice-cold buffer The radioactivity remained on the filter was counted in a gamma counter (Wallac Automatic Gamma Counter 1470 Wizard).
(Displacement assays read how much labelled ligand stays bound in the presence of the test substance.)

Data set [2] concerns the target T2, human recombinant orexin-1 (hr-OX-1) receptor (Homo sapiens, UniProt O43613).
T2 construct: expressed in transfected cells; host or cells: CHO (CHO-hr-OX-1 cells), purified plasma membrane fraction
T2 sequence (O43613 1-425): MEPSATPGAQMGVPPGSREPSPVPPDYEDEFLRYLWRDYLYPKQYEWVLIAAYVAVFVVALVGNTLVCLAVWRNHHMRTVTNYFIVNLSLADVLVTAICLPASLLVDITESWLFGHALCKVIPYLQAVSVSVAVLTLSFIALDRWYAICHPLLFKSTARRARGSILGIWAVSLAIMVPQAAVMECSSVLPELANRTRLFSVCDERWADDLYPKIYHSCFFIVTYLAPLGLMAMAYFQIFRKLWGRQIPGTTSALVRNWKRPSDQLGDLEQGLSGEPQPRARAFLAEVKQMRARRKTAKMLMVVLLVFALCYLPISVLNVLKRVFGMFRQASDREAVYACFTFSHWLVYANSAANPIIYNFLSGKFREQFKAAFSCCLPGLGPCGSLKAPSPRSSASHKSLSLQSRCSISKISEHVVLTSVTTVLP
Put plainly: hr-125I-orexin-A radioligand competition binding, orexin-1 receptor. The following applies: displacement of 125I-orexin-A, CHO-hr-OX-1 plasmamembranes, 25° C., 60 minutes; read-out: Orex-1 IC50. As to the method: as §1, §2, §3, §4, §5, §6

For orientation: IC50 means the concentration needed to halve the response being measured. For `COc1ccccc1C(=O)Nc1cccc(C(O)CN(C)C(=O)c2cnc(N(C)C)nc2-c2ccccc2)c1` (centres unmarked) [2-Dimethylamino-4-phenylpyrimidin-5-carboxylic acid {2-hydroxy-2-[3-(2-methoxy-benzoylamino)phenyl]ethyl}methylamide], the IC50 worked out at 0.32 µM in data set [1] and 0.015 µM in data set [2]. Consider `CC(C(O)c1ccccc1)N(C)C(=O)c1cnc(NCc2ccccn2)nc1-c1ccccc1` (centres unmarked) [4-Phenyl-2-[(pyridin-2-ylmethyl)amino]pyrimidin-5-carboxylic acid (2-hydroxy-1-methyl-2-phenylethyl)methylamide], for which the results for the 50% inhibitory concentration (IC50) in data set [1] and in data set [2] were 5.4 µM and 0.012 µM, respectively.

Consider `CN(CC(O)c1cccc(OCc2ccccc2)c1)C(=O)c1cnc(N(C)C)nc1-c1ccccc1` (centres unmarked) [2-Dimethylamino-4-phenylpyrimidine-5-carboxylic acid [2-(3-benzyloxyphenyl)-2-hydroxyethyl]methylamide], for which the figures for the half-inhibitory concentration (IC50) in data set [1] and in data set [2] were 3.6 µM and 0.03 µM, respectively. As for `Cc1ccccc1-c1nc(N(C)Cc2ccccc2)ncc1C(=O)N(C)CC(O)c1cccc(O)c1` (centres unmarked) [2-(Benzylmethylamino)-4-(2-methylphenyl)pyrimidine-5-carboxylic acid [2-hydroxy-2-(3-hydroxyphenyl)ethyl]methylamide], the half-inhibitory concentration (IC50) in data set [1] turned out to be 5.8 µM; in data set [2], 0.022 µM. Turning to `CN(CC(O)c1cccc(OC(=O)C(C)(C)C)c1)C(=O)c1cnc(N(C)C)nc1-c1ccccc1Cl` (centres unmarked) [2,2-Dimethylpropionic acid 3-{2-[(2-dimethylamino-4-(2-chlorophenyl)pyrimidine-5-carbonyl)methylamino]1-hydroxyethyl}phenyl ester], the IC50 in data set [1] was 2.9 µM; in data set [2] it was 0.03 µM. Usually melting point stands for the temperature, or range, at which the solid turns liquid. The compound `CN(CC(O)c1cccc(O)c1)C(=O)c1cnc(NCc2cccs2)nc1-c1ccccc1` (centres unmarked) (hydrate or solvate) [Example 17, 4-Phenyl-2-[(thiophen-2-ylmethyl)amino]pyrimidine-5-carboxylic acid [2-hydroxy-2-(3-hydroxyphenyl)ethyl]methylamide] gave a melting point of 85 to 87 °C. As for `CN(Cc1ccccc1)c1ncc(C(=O)N2CCCCC2C(O)c2ccccc2)c(-c2ccccc2)n1` (racemic), the IC50 in data set [1] is 6.7 µM; in data set [2], 0.011 µM. Regarding `CN(CC(O)c1cccc(OCc2ccccc2)c1)C(=O)c1cnc(N(C)C)nc1-c1ccc(Cl)c(Cl)c1` (centres unmarked) [Example 59, 2-Dimethylamino-4-(3,4-dichlorophenyl)pyrimidine-5-carboxylic acid [2-(3-benzyloxyphenyl)-2-hydroxyethyl]methylamide], the melting point was in the range of 68 to 70 °C.
